From paper PMC11571207, “Stereorandomized Oncocins with Preserved Ribosome Binding and Antibacterial Activity” (Journal of Medicinal Chemistry, 2024)
Converted amounts (≈) assume the structure as drawn. Like-named read-outs stand apart in the source and are kept apart here. Non-standard residues stand in square brackets, D forms with d. Residues, ends and D or L forms follow the SMILES beside them. No end group written: not given here.

How the values were obtained:
E. cloacae = test: microbe, parasite or virus in culture; settings: for MIC E. cloacae, 12.5% MHB: 12.5% MHB pH 7.4; for MIC E. cloacae, 12.5% MHB / MIC E. cloacae, full MHB: 16–20 h at 37 °C; for MIC E. cloacae, full MHB: full MHB pH 7.4; for MIC E. cloacae: supplement CSV
Procedure, shortened: (§1)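 Minimal inhibitory concentrations come from broth microdilution in MH medium, with a top peptide concentration of 64 μg/mL halved serially.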

K. pneumoniae OXA-48 = test: microbe, parasite or virus in culture; settings: for MIC K. pneumoniae OXA-48, 12.5% MHB / MIC K. pneumoniae OXA-48, full MHB: carbapenem-resistant, 16–20 h at 37 °C; for MIC K. pneumoniae OXA-48, 12.5% MHB: 12.5% MHB pH 7.4; for MIC K. pneumoniae OXA-48, full MHB: full MHB pH 7.4; for MIC K. pneumoniae OXA-48: supplement CSV
Procedure, shortened: as §1

[1] = tested on: P. aeruginosa PA14 2P4 (pmrB); test: microbe, parasite or virus in culture; settings: for MIC P. aeruginosa PA14 2P4 (pmrB), 12.5% MHB / MIC P. aeruginosa PA14 2P4 (pmrB), full MHB: polymyxin B resistant strain, 16–20 h at 37 °C; for MIC P. aeruginosa PA14 2P4 (pmrB), 12.5% MHB: 12.5% MHB pH 7.4; for MIC P. aeruginosa PA14 2P4 (pmrB), full MHB: full MHB pH 7.4; for MIC P. aeruginosa PA14 2P4: supplement CSV
Procedure, shortened: as §1

P. aeruginosa PA14 = test: microbe, parasite or virus in culture; settings: for MIC P. aeruginosa PA14, 12.5% MHB: 12.5% MHB pH 7.4; for MIC P. aeruginosa PA14, 12.5% MHB / MIC P. aeruginosa PA14, full MHB: 16–20 h at 37 °C, two different duplicate MIC determinations; for MIC P. aeruginosa PA14, full MHB: full MHB pH 7.4; for MIC P. aeruginosa PA14: supplement CSV
Procedure, shortened: as §1

P. aeruginosa ZEM-1A = test: microbe, parasite or virus in culture; settings: for MIC P. aeruginosa ZEM-1A, 12.5% MHB / MIC P. aeruginosa ZEM-1A, full MHB: clinical isolate, 16–20 h at 37 °C, cells marked c: single measurement (in duplicates); for MIC P. aeruginosa ZEM-1A, 12.5% MHB: 12.5% MHB pH 7.4; for MIC P. aeruginosa ZEM-1A, full MHB: full MHB pH 7.4; for MIC P. aeruginosa ZEM-1A: supplement CSV
Procedure, shortened: as §1

P. aeruginosa ZEM9A = test: microbe, parasite or virus in culture; settings: for MIC P. aeruginosa ZEM9A, 12.5% MHB / MIC P. aeruginosa ZEM9A, full MHB: clinical isolate, 16–20 h at 37 °C; for MIC P. aeruginosa ZEM9A, 12.5% MHB: 12.5% MHB pH 7.4; for MIC P. aeruginosa ZEM9A, full MHB: full MHB pH 7.4; for MIC P. aeruginosa ZEM9A: supplement CSV
Procedure, shortened: as §1

E. coli BW25113 WT = settings: Table S1, 16-20 h at 37 °C; for MIC E. coli BW25113 WT, 12.5% MH: 12.5% Müller-Hinton medium pH 7.4; for MIC E. coli BW25113 WT, Full MH: full Müller-Hinton medium pH 7.4
Experimental: (§2) Minimum inhibitory concentration assay
(§3) Antimicrobial activity was assayed against P. aeruginosa PAO1, K. pneumoniae NCTC418, E. coli W3110, A. baumannii ATCC 19606, methicillin-resistant S. aureus COL (MRSA), and for selected peptides on P. aeruginosa PA14 and the polymyxin-B-resistant derivative PA14 2P4, as well as the clinical isolates ZEM-1A and ZEM9A, K. pneumoniae OXA-48, S. aureus Newman, Enterobacter cloacae and Burkholderia cenocepacia. The minimal inhibitory concentration (MIC) was determined by using broth microdilution method. A colo ny of bacteria was picked and grown in Luria-Bertani (LB) medium overnight at 37°C. For E. coli BW25113 sbmA::kan the medium was supplemented with 25 mg/L of kanamycin. The next day, the culture was then regrown in LB medium to log phase (OD600 = 0.6 to 0.8), which lasted approximately 4 h, and diluted to an OD600 of 0.022 in the desired medium. Stock solutions of 1 mg/mL of the samples were prepared in sterilized milliQ water and diluted to the beginning concentration of 64 μg/mL in 300 μL Mueller Hinton (MH)-medium. The diluted samples were added to first well of 96-well microtiter plate (TPP, untreated, Faust Laborbedarf, AG, Schaffhausen) and diluted serially by ½. Finally, 4 μL of the bacterial suspension was inoculated into the sample solutions (150 μL/well) with a final inoculation of about 5∙10^5 CFU/mL. The plates were then incubated at 37°C for 15-18h. For each assay, sterility (broth only) and growth control (broth with bacterial inoculum, without antibiotics) were checked with two columns in the plate. The next day, 15 μL of 3-(4,5-dimethylthiazol-2-yl)-2,5-diphenyltetrazolium bromide (MTT) was added to each well of the plate, such a way that MIC was defined as the lowest concentration of the peptide that inhibited visible growth of the tested […]
(§4) Table S1. Activity of stereorandomized and diastereomeric oncocins against E. coli BW25113 WT and BW25113 sbmA::kan mutant in full and 12.5% MH, at pH 7.4. […]
(§5) a) Minimum inhibitory concentration (MIC, μg/mL) was determined on E. coli BW25113 WT and […]

[2] = tested on: E. coli BW25113 sbmA::kan; settings: Table S1, sbmA::kan mutant, 16-20 h at 37 °C; for MIC E. coli BW25113 SbmA-, 12.5% MH: 12.5% Müller-Hinton medium pH 7.4; for MIC E. coli BW25113 SbmA-, Full MH: full Müller-Hinton medium pH 7.4
Experimental: as §2, §3, §4, §5

[3] = tested on: P. aeruginosa PA14 4.13 (phoQ); settings: for MIC P. aeruginosa PA14 4.13 (phoQ), 12.5% MHB / MIC P. aeruginosa PA14 4.13 (phoQ), full MHB: polymyxin B resistant strain, 16–20 h at 37 °C; for MIC P. aeruginosa PA14 4.13 (phoQ), 12.5% MHB: 12.5% MHB pH 7.4; for MIC P. aeruginosa PA14 4.13 (phoQ), full MHB: full MHB pH 7.4; for MIC P. aeruginosa PA14 4.13: supplement CSV
human red blood cells = test: Hemolysis assay, minimum hemolytic concentration; settings: for Haemolysis on hRBC, MHC: 2.5% human red blood cells (final) in 10 mM phosphate, 150 mM NaCl, pH 7.4, 25 °C, 4 h, visual inspection; for MHC human red blood cells: supplement CSV

Row | Compound | MIC E. cloacae, 12.5% MHB (E. cloacae) [µg/mL] | MIC E. cloacae, full MHB (E. cloacae) [µg/mL] | MIC E. cloacae (E. cloacae; 12.5% MH pH 7.4) [µg/mL] | MIC E. cloacae (E. cloacae; full MH pH 7.4) [µg/mL] | MIC K. pneumoniae OXA-48, 12.5% MHB (K. pneumoniae OXA-48) | MIC K. pneumoniae OXA-48, full MHB (K. pneumoniae OXA-48) | MIC K. pneumoniae OXA-48 (K. pneumoniae OXA-48; 12.5% MH pH 7.4) [µg/mL] | MIC K. pneumoniae OXA-48 (K. pneumoniae OXA-48; full MH pH 7.4) [µg/mL] | MIC P. aeruginosa PA14 2P4 (pmrB), 12.5% MHB [1] [µg/mL] | MIC P. aeruginosa PA14 2P4 (pmrB), full MHB [1] [µg/mL] | MIC P. aeruginosa PA14 2P4 ([1]; 12.5% MH pH 7.4) [µg/mL] | MIC P. aeruginosa PA14 2P4 ([1]; full MH pH 7.4) [µg/mL] | MIC P. aeruginosa PA14, 12.5% MHB (P. aeruginosa PA14) | MIC P. aeruginosa PA14, full MHB (P. aeruginosa PA14) | MIC P. aeruginosa PA14 (P. aeruginosa PA14; 12.5% MH pH 7.4) [µg/mL] | MIC P. aeruginosa PA14 (P. aeruginosa PA14; full MH pH 7.4) [µg/mL] | MIC P. aeruginosa ZEM-1A, 12.5% MHB (P. aeruginosa ZEM-1A) | MIC P. aeruginosa ZEM-1A, full MHB (P. aeruginosa ZEM-1A) | MIC P. aeruginosa ZEM-1A (P. aeruginosa ZEM-1A; 12.5% MH pH 7.4) [µg/mL] | MIC P. aeruginosa ZEM9A, 12.5% MHB (P. aeruginosa ZEM9A) | further results
1 | VDKPPYLPRPRPPRRIYNR [sr9Cterm-Onc] (VDKPPYLPRPRPPRRIYNR-NH2; also: residues 11-19 stereorandomized (1:1 L/D mixture)) | 1 | 32 | 1 | 32 | 4 µg/mL | 32 µg/mL | 4 | 32 | 4 | > 64 | 4 | >64 | 8 µg/mL | > 64 µg/mL | 8 | >64 | 4 to 8 µg/mL | 64 µg/mL | 4 to 8 | 8 µg/mL | MIC P. aeruginosa ZEM9A, full MHB (P. aeruginosa ZEM9A): > 64 µg/mL; MIC P. aeruginosa ZEM9A (P. aeruginosa ZEM9A; 12.5% MH pH 7.4): 8 µg/mL; MIC P. aeruginosa ZEM9A (P. aeruginosa ZEM9A; full MH pH 7.4): >64 µg/mL; MIC E. coli BW25113 WT, 12.5% MH (E. coli BW25113 WT): 4 µg/mL; MIC E. coli BW25113 WT, Full MH (E. coli BW25113 WT): 32 µg/mL; MIC E. coli BW25113 SbmA-, 12.5% MH [2]: 8 µg/mL; MIC E. coli BW25113 SbmA-, Full MH [2]: > 64 µg/mL; MIC P. aeruginosa PA14 4.13 (phoQ), 12.5% MHB [3]: 8 µg/mL; MIC P. aeruginosa PA14 4.13 (phoQ), full MHB [3]: 64 µg/mL; MIC P. aeruginosa PA14 4.13 ([3]; 12.5% MH pH 7.4): 8 µg/mL; MIC P. aeruginosa PA14 4.13 ([3]; full MH pH 7.4): 64 µg/mL; Haemolysis on hRBC, MHC (human red blood cells): >1000 µg/mL; MHC human red blood cells (human red blood cells): >1000 µg/mL
2 | CC[C@H](C)[C@H](NC(=O)[C@H](CCCNC(=N)N)NC(=O)[C@H](CCCNC(=N)N)NC(=O)[C@@H]1CCCN1C(=O)[C@@H]1CCCN1C(=O)[C@H](CCCNC(=N)N)NC(=O)[C@@H]1CCCN1C(=O)[C@H](CCCNC(=N)N)NC(=O)[C@@H]1CCCN1C(=O)[C@@H](CC(C)C)NC(=O)[C@H](Cc1ccc(O)cc1)NC(=O)[C@@H]1CCCN1C(=O)[C@@H]1CCCN1C(=O)[C@H](CCCCN)NC(=O)[C@H](CC(=O)O)NC(=O)[C@@H](N)C(C)C)C(=O)N[C@@H](Cc1ccc(O)cc1)C(=O)N[C@@H](CC(N)=O)C(=O)N[C@@H](CCCNC(=N)N)C(N)=O [DL7-Onc] (H-VDKPPY[dL]PRPRPPRRIYNR-NH2) | 32 (≈ 13.4 µM) | > 64 | 32 (≈ 13.4 µM) | >64 | >64/>64 μg/mL | >64/>64 μg/mL | >64 | >64 | 32 (≈ 13.4 µM) | > 64 | 32 (≈ 13.4 µM) | >64 | >32/>32 μg/mL | >32/>32 μg/mL | >32 | >32 | >64/>64 ^c μg/mL | >64/>64 ^c μg/mL | >64 | >64/>64 μg/mL | MIC P. aeruginosa ZEM-1A (P. aeruginosa ZEM-1A; full MH pH 7.4): >64 µg/mL; MIC P. aeruginosa ZEM9A, full MHB (P. aeruginosa ZEM9A): >64/>64 μg/mL; MIC P. aeruginosa ZEM9A (P. aeruginosa ZEM9A; 12.5% MH pH 7.4): >64 µg/mL; MIC P. aeruginosa ZEM9A (P. aeruginosa ZEM9A; full MH pH 7.4): >64 µg/mL; MIC E. coli BW25113 WT, 12.5% MH (E. coli BW25113 WT): 32 µg/mL (≈ 13.4 µM); MIC E. coli BW25113 WT, Full MH (E. coli BW25113 WT): > 64 µg/mL; MIC E. coli BW25113 SbmA-, 12.5% MH [2]: 32 µg/mL (≈ 13.4 µM); MIC E. coli BW25113 SbmA-, Full MH [2]: > 64 µg/mL; MIC P. aeruginosa PA14 4.13 (phoQ), 12.5% MHB [3]: >32/>32 μg/mL; MIC P. aeruginosa PA14 4.13 (phoQ), full MHB [3]: >32/>32 μg/mL; MIC P. aeruginosa PA14 4.13 ([3]; 12.5% MH pH 7.4): >32 µg/mL; MIC P. aeruginosa PA14 4.13 ([3]; full MH pH 7.4): >32 µg/mL; Haemolysis on hRBC, MHC (human red blood cells): >1000 µg/mL; MHC human red blood cells (human red blood cells): >1000 µg/mL
